{"source": "patent US20120258980A1", "about": "“Antibacterial Agent for Drug-Resistant Bacteria, Method for Screening for Same, and Use of Same” (priority 2009, published 2012)", "key": {"[1]": {"system": "MRSA, CA-MRSA and MSSA of Staphylococcus aureus", "assay": "MIC measurement, Test Example 4 (MRSA, CA-MRSA and MSSA strains)", "assay_type": "cell-based", "details": "Staphylococcus aureus", "procedure": "(§1) Each of the bacterial strains listed in Table 1-1 was shake-cultured at 37° C. overnight in 4 mL of a medium (Tryptical Soy Broth: TSB, product of Becton Dickinson and Company). FDA209P was used as a control.\n(§2) After completion of culturing, the resultant culture was suspended in a cation-adjusted Mueller Hinton Broth (CAMHB, product of Becton Dickinson and Company). Then, the obtained bacterial culture was adjusted in absorbance with the CAMHB so that the absorbance at 578 nm of the bacterial culture was adjusted to 0.3 measured by an absorption spectrometer. In addition, the resultant bacterial culture was 500-fold diluted with the CAMHB.\n(§3) Each of the 500-fold diluted, pre-cultured bacterial cultures was added at 50 μL/well to the CAMHB containing the quinolones and the nybomycins at various concentrations (50 μL/well), followed by statically culturing at 37° C. overnight.\n(§4) After completion of culturing, the growth of the bacteria was visually determined based on turbidity to measure MIC in each bacterial strain.\nGlycopeptides, imipenem, quinolones and nybomycins were studied for antibacterial activity against the bacterial strains listed in Table 2-1; i.e., MRSA, CA-MRSA and MSSA of Staphylococcus aureus."}, "[2]": {"system": "VISA clinical isolates of MRSA (VI-MRSA) and of MSSA (VI-MSSA)", "assay": "microbe, parasite or virus in culture", "assay_type": "cell-based, Staphylococcus aureus", "procedure": "as §1, §2, §3, §4\nHere, the glycopeptides used were VCM and TEIC. The β-lactam used was OXA."}}}
{"smiles": "CN[C@H](CC(C)C)C(=O)N[C@H]1C(=O)N[C@@H](CC(N)=O)C(=O)N[C@H]2C(=O)N[C@H]3C(=O)N[C@H](C(=O)N[C@H](C(=O)O)c4cc(O)cc(O)c4-c4cc3ccc4O)[C@H](O)c3ccc(c(Cl)c3)Oc3cc2cc(c3O[C@@H]2O[C@H](CO)[C@@H](O)[C@H](O)[C@H]2O[C@H]2C[C@](C)(N)[C@H](O)[C@H](C)O2)Oc2ccc(cc2Cl)[C@H]1O", "note": "[VCM, vancomycin]", "values": [{"measurement": "MIC", "setting": "[1]; ATCC 29213 / MRSA / MSSA, ATCC 29213, MSSA", "value": 0.5, "unit": "µg/mL"}, {"measurement": "MIC", "setting": "[1]; COL, MRSA", "value": 0.5, "unit": "µg/mL"}, {"measurement": "MIC", "setting": "[1]; FDA209P / MRSA / MSSA, FDA209P, MSSA", "value": 0.5, "unit": "µg/mL"}, {"measurement": "MIC", "setting": "[1]; ISA12-1, MRSA", "value": 0.5, "unit": "µg/mL"}, {"measurement": "MIC", "setting": "[1]; ISA12-2, MRSA", "value": 0.5, "unit": "µg/mL"}, {"measurement": "MIC", "setting": "[1]; ISA35-1, MRSA", "value": 1, "unit": "µg/mL"}, {"measurement": "MIC", "setting": "[1]; ISA37-1, MSSA", "value": 1, "unit": "µg/mL"}, {"measurement": "MIC", "setting": "[1]; ISA49-1, MSSA", "value": 1, "unit": "µg/mL"}, {"measurement": "MIC", "setting": "[1]; ISA51-1, MSSA", "value": 1, "unit": "µg/mL"}, {"measurement": "MIC", "setting": "[1]; ISA56-3, MRSA", "value": 2, "unit": "µg/mL"}, {"measurement": "MIC", "setting": "[1]; ISA58-1, MRSA", "value": 1, "unit": "µg/mL"}, {"measurement": "MIC", "setting": "[1]; ISA62-1, MRSA", "value": 1, "unit": "µg/mL"}, {"measurement": "MIC", "setting": "[1]; ISA73-1, MSSA", "value": 1, "unit": "µg/mL"}, {"measurement": "MIC", "setting": "[1]; KBSA32, MRSA", "value": 0.5, "unit": "µg/mL"}, {"measurement": "MIC", "setting": "[1]; KBSA34, MRSA", "value": 1, "unit": "µg/mL"}, {"measurement": "MIC", "setting": "[1]; KBSA72, MRSA", "value": 1, "unit": "µg/mL"}, {"measurement": "MIC", "setting": "[1]; KBSA96, MRSA", "value": 1, "unit": "µg/mL"}, {"measurement": "MIC", "setting": "[1]; KBSA171, MRSA", "value": 1, "unit": "µg/mL"}, {"measurement": "MIC", "setting": "[1]; KSA24, MRSA", "value": 1, "unit": "µg/mL"}, {"measurement": "MIC", "setting": "[1]; KSA31, MRSA", "value": 1, "unit": "µg/mL"}, {"measurement": "MIC", "setting": "[1]; KSA36, MRSA", "value": 1, "unit": "µg/mL"}, {"measurement": "MIC", "setting": "[1]; MRSA / MSSA / NCTC 8325, NCTC 8325, MSSA", "value": 1, "unit": "µg/mL"}, {"measurement": "MIC", "setting": "[1]; MRSA / MSSA / USA300, USA300 FPR3757, CA-MRSA", "value": 1, "unit": "µg/mL"}, {"measurement": "MIC", "setting": "[1]; MW2, CA-MRSA", "value": 0.5, "unit": "µg/mL"}, {"measurement": "MIC", "setting": "[1]; N315, MRSA", "value": 0.5, "unit": "µg/mL"}, {"measurement": "MIC", "setting": "[2]; Staphylococcus aureus, 99/3700-W, VI-MRSA, The United Kingdom", "value": 2, "unit": "µg/mL"}, {"measurement": "MIC", "setting": "[2]; Staphylococcus aureus, 99/3759-V, VI-MRSA, The United Kingdom", "value": 2, "unit": "µg/mL"}, {"measurement": "MIC", "setting": "[2]; Staphylococcus aureus, 28160, VI-MRSA, South African Republic", "value": 4, "unit": "µg/mL"}, {"measurement": "MIC", "setting": "[2]; Staphylococcus aureus, 98141, VI-MRSA, France", "value": 2, "unit": "µg/mL"}, {"measurement": "MIC", "setting": "[2]; Staphylococcus aureus, A7 (JCSC4842), VI-MRSA, Taiwan", "value": 3, "unit": "µg/mL"}, {"measurement": "MIC", "setting": "[2]; Staphylococcus aureus, AMC11094, VI-MRSA, Korea", "value": 4, "unit": "µg/mL"}, {"measurement": "MIC", "setting": "[2]; Staphylococcus aureus, B7 (JCSC4852), VI-MRSA, Taiwan", "value": 4, "unit": "µg/mL"}, {"measurement": "MIC", "setting": "[2]; Staphylococcus aureus, BR1, VI-MRSA, Brazil", "value": 2, "unit": "µg/mL"}, {"measurement": "MIC", "setting": "[2]; Staphylococcus aureus, BR2, VI-MRSA, Brazil", "value": 4, "unit": "µg/mL"}, {"measurement": "MIC", "setting": "[2]; Staphylococcus aureus, BR3, VI-MRSA, Brazil", "value": 8, "unit": "µg/mL"}, {"measurement": "MIC", "setting": "[2]; Staphylococcus aureus, BR4, VI-MRSA, Brazil", "value": 8, "unit": "µg/mL"}, {"measurement": "MIC", "setting": "[2]; Staphylococcus aureus, BR5, VI-MRSA, Brazil", "value": 8, "unit": "µg/mL"}, {"measurement": "MIC", "setting": "[2]; Staphylococcus aureus, HIP06297, VI-MRSA, America", "value": 4, "unit": "µg/mL"}, {"measurement": "MIC", "setting": "[2]; Staphylococcus aureus, HIP06854, VI-MRSA, America", "value": 4, "unit": "µg/mL"}, {"measurement": "MIC", "setting": "[2]; Staphylococcus aureus, HIP07920, VI-MRSA, America", "value": 2, "unit": "µg/mL"}, {"measurement": "MIC", "setting": "[2]; Staphylococcus aureus, HIP07930, VI-MRSA, America", "value": 4, "unit": "µg/mL"}, {"measurement": "MIC", "setting": "[2]; Staphylococcus aureus, HIP08926, VI-MRSA, America", "value": 4, "unit": "µg/mL"}, {"measurement": "MIC", "setting": "[2]; Staphylococcus aureus, HIP09143, VI-MRSA, America", "value": 4, "unit": "µg/mL"}, {"measurement": "MIC", "setting": "[2]; Staphylococcus aureus, HIP09313, VI-MRSA, America", "value": 4, "unit": "µg/mL"}, {"measurement": "MIC", "setting": "[2]; Staphylococcus aureus, HIP09433, VI-MRSA, America", "value": 2, "unit": "µg/mL"}, {"measurement": "MIC", "setting": "[2]; Staphylococcus aureus, HIP09662, VI-MRSA, America", "value": 4, "unit": "µg/mL"}, {"measurement": "MIC", "setting": "[2]; Staphylococcus aureus, HIP09735, VI-MRSA, America", "value": 4, "unit": "µg/mL"}, {"measurement": "MIC", "setting": "[2]; Staphylococcus aureus, HIP09737, VI-MSSA, America", "value": 4, "unit": "µg/mL"}, {"measurement": "MIC", "setting": "[2]; Staphylococcus aureus, HIP09740, VI-MRSA, America", "value": 1, "unit": "µg/mL"}, {"measurement": "MIC", "setting": "[2]; Staphylococcus aureus, HIP10267, VI-MRSA, America", "value": 4, "unit": "µg/mL"}, {"measurement": "MIC", "setting": "[2]; Staphylococcus aureus, HIP10540, VI-MRSA, America", "value": 4, "unit": "µg/mL"}, {"measurement": "MIC", "setting": "[2]; Staphylococcus aureus, HIP12864, VI-MRSA, America", "value": 4, "unit": "µg/mL"}, {"measurement": "MIC", "setting": "[2]; Staphylococcus aureus, HIP13036, VI-MRSA, America", "value": 8, "unit": "µg/mL"}, {"measurement": "MIC", "setting": "[2]; Staphylococcus aureus, HIP13057, VI-MRSA, America", "value": 4, "unit": "µg/mL"}, {"measurement": "MIC", "setting": "[2]; Staphylococcus aureus, IL (HIP7737), VI-MRSA, America", "value": 4, "unit": "µg/mL"}, {"measurement": "MIC", "setting": "[2]; Staphylococcus aureus, JCSC7193, VI-MRSA, Thailand", "value": 4, "unit": "µg/mL"}, {"measurement": "MIC", "setting": "[2]; Staphylococcus aureus, JCSC7195, VI-MRSA, Thailand", "value": 1, "unit": "µg/mL"}, {"measurement": "MIC", "setting": "[2]; Staphylococcus aureus, JCSC7203, VI-MRSA, Thailand", "value": 2, "unit": "µg/mL"}, {"measurement": "MIC", "setting": "[2]; Staphylococcus aureus, LIM2, VI-MRSA, France", "value": 2, "unit": "µg/mL"}, {"measurement": "MIC", "setting": "[2]; Staphylococcus aureus, LY-1999-01, VI-MSSA, Oman", "value": 4, "unit": "µg/mL"}, {"measurement": "MIC", "setting": "[2]; Staphylococcus aureus, LY-1999-03, VI-MRSA, Oman", "value": 4, "unit": "µg/mL"}, {"measurement": "MIC", "setting": "[2]; Staphylococcus aureus, MI (HIP5827), VI-MRSA, America", "value": 8, "unit": "µg/mL"}, {"measurement": "MIC", "setting": "[2]; Staphylococcus aureus, MRSA / MSSA / NRS 76 / VISA, NRS76, VI-MSSA, America", "value": 2, "unit": "µg/mL"}, {"measurement": "MIC", "setting": "[2]; Staphylococcus aureus, MRSA / MSSA / NRS 79 / VISA, NRS79, VI-MRSA, America", "value": 2, "unit": "µg/mL"}, {"measurement": "MIC", "setting": "[2]; Staphylococcus aureus, MRSA / MSSA / NRS 118 / VISA, NRS118, VI-MRSA, America", "value": 8, "unit": "µg/mL"}, {"measurement": "MIC", "setting": "[2]; Staphylococcus aureus, MRSA / MSSA / NRS 126 / VISA, NRS126, VI-MRSA, America", "value": 4, "unit": "µg/mL"}, {"measurement": "MIC", "setting": "[2]; Staphylococcus aureus, Mu3, VI-MRSA, Japan", "value": 0.5, "unit": "µg/mL"}, {"measurement": "MIC", "setting": "[2]; Staphylococcus aureus, Mu50, VI-MRSA, Japan", "value": 8, "unit": "µg/mL"}, {"measurement": "MIC", "setting": "[2]; Staphylococcus aureus, NJ (HIP5836), VI-MRSA, America", "value": 8, "unit": "µg/mL"}, {"measurement": "MIC", "setting": "[2]; Staphylococcus aureus, P1V44, VI-MSSA, Belgium", "value": 2, "unit": "µg/mL"}, {"measurement": "MIC", "setting": "[2]; Staphylococcus aureus, PC, VI-MRSA, America", "value": 8, "unit": "µg/mL"}, {"measurement": "MIC", "setting": "[2]; Staphylococcus aureus, SA MER-S6, VI-MSSA, France", "value": 4, "unit": "µg/mL"}, {"measurement": "MIC", "setting": "[2]; Staphylococcus aureus, SA MER-S12, VI-MSSA, France", "value": 4, "unit": "µg/mL"}, {"measurement": "MIC", "setting": "[2]; Staphylococcus aureus, SA MER-S20, VI-MSSA, France", "value": 4, "unit": "µg/mL"}]}
